PMC3989846 (Malaria Journal, 2014)
Where two headings read alike, the source gives them in different places.

Columns and labels:
[1] = design: method as in PMID 15378438, PMID 10479159; details: cited from earlier work
[2] = design: method as in PMID 9598455; details: simulated gastric fluid; cited from earlier work
[3] = Liver tissue distribution pharmacokinetics after single intravenous or intragastric dose; type: in vivo, male ICR mice; details: for Kp: liver/plasma, read-out: AUCinf ratio (liver/plasma); for half-life: read-out: t1/2 elimination (converted)
Description: PK studies were performed using both intravenous (IV) and intragastric (IG) administration. For each time point to be acquired, three male ICR mice per time-point, aged seven weeks, were dosed at either PQ or TQ at 5 mg/kg (IV) or 20 mg/kg (IG). Drug vehicle for IV studies was 0.9% saline solution, and the formulated drugs were administered in a volume of 100 μL/20 g of body weight. For IG dosing, the drug vehicle was 0.5% HECT, administered at 100 μL/20 g. At each time point, plasma and liver samples were collected. Whole blood was collected by cardiac puncture. […] Following the separation of appropriate aliquots, plasma was obtained from the whole blood via centrifugation. All liquid and tissue samples were immediately preserved on dry ice and lately stored at -80°C until analytical work was performed.
Blank liver homogenate was prepared by adding 5 mL of water for each gram of liver, then the mixture was homogenized using an ultra-sonication probe (VCX 750, Sonics & Materials, Inc., Newtown, CT). […] The serial dilutions for analysis also included the preparation of 4–5 QC samples at a low range point and a high range point (generally 10 ng/mL and 100 ng/mL, respectively). Once the standard curve dilutions were prepared, a 100 μL aliquot was removed and extracted with 200 μL acetonitrile. The extracted samples were centrifuged at 10,000 rpm for 10 min and the supernatant was removed for analysis by LC-MS/MS. Sample drug concentrations were first interpolated from the standard curve, then multiplied by a factor of 6 to account for the drug levels present in the liver prior to dilution with water for homogenization.
Chromatography was performed using a Surveyor pump (Thermo Scientific, Waltham, MA) with Waters XTerra MS C18 50 mm × 2.1 mm id, 3.5 μm particle size columns (Waters Corp., Milford, MA). Mobile phase consisted of a water/0.1% formic acid (Solvent A)/acetonitrile/0.1% formic acid (Solvent B) gradient. […] Flow rate was 300 μL/min. Samples were injected using an HTC PAL autosampler (LEAP Technologies, Carrboro, NC). Tandem mass spectrometry was performed using a TSQ Quantum AM (Thermo Scientific).
Drug concentrations were generated for each sample taken from animals dosed with both test drugs. A measured plasma and liver drug concentration vs. time curve was produced, in graphic and tabular form, for each subject on both linear/linear and log/linear scales, for the parent compound. Mean plasma drug concentration vs. time curves were also prepared separately. For the determination of initial approach to PK parameters of TQ and PQ in plasma and liver tissues after systemic application, a non-compartmental analysis was performed using Phoenix (version 6.1; Pharsight Corp., Mountain View, CA). Maximum plasma and liver concentration (Cmax), and time to maximum concentration (tmax) of TQ and PQ were obtained from the plasma and liver drug concentration-time curves. The elimination half-life (t1/2) was calculated from In2/kel, which is the elimination rate constant calculated from the log concentration-time plot. The area under the curve (AUC) and the area under the first moment curve (AUMC) were determined by the linear trapezoidal rule with extrapolation to infinity based on the concentration of the last time point divided by the terminal rate constant. Mean clearance rate (CL) was determined by dividing the dose by the AUCinf for intravenous injection for plasma samples. Absolute bioavailability was calculated by taking the dose-corrected area under the curve (AUC) from non-intravenous dosing divided by the AUC derived from intravenous dosing. Mean residence time (MRT) was determined by dividing the area under the first moment curve (AUMC) by AUC. The volume of the central compartment (Vz) and volume of the tissue compartment (Vz/F) were calculated as the product of CL and MRT.

[4] = male, ICR, mouse, po, intragastric 20 mg/kg, liver
[5] = male, ICR, mouse, intravenous 5 mg/kg, liver

COc1cc(C)c2c(Oc3cccc(C(F)(F)F)c3)c(OC)cc(NC(C)CCCN)c2n1 (stereo not drawn) [Tafenoquine, tafenoquine]
half-life [1]: approximately 14 days
time to complete dissolution [2]: ≤ 30 min
Cmax ([3]; ICR, mouse, intravenous 5 mg/kg, liver, male mice (head: μg/mL or g), read-out: Cmax): 44800 ± 30000 ng/g
AUCinf ratio (liver/plasma) ([3]; intragastric 20 mg/kg): 48.91 ± 22.67
Cmax ([3]; intragastric 20 mg/kg, liver): 56.90 ± 26.09 µg/mL
AUCinf ratio (liver/plasma) ([3]; intravenous 5 mg/kg, 5 mg/kg): 87.24 ± 44.29
AUClast ([3]; intravenous 5 mg/kg, liver (μg · h/mL or g)): 2493.82 ± 1361.10 µg·h/g
AUCinfininty ([3]; intravenous 5 mg/kg, liver (μg · h/mL or g), 5 mg/kg): 2544.96 ± 1348.03 µg·h/g
AUCinfininty ([3]; intravenous 5 mg/kg, liver (μg · h/mL or g), listed as TQ, 5 mg/kg): 2544.96 µg·h/g
Kp ([3]; male, ICR, mouse, po, intragastric 20 mg/kg): 48.9
Kp ([3]; male, ICR, mouse, intravenous 5 mg/kg): 87.2
MRT [3, 4]: 88.7 ± 13 h
Tmax [3, 4]: 1.17 ± 0.76 h
half-life [3, 4]: 75.5 ± 12.1 h
MRT [3, 5]: 66.1 ± 19.2 h
Tmax [3, 5]: 3.69 ± 2.29 h
half-life [3, 5]: 70 ± 4.35 h
Cmax ([3]; male, ICR, mouse, single oral dose 20 mg/kg, liver, read-out: Cmax): 56900 ng/g
Cmax of orally dosed TQ, fold higher than PQ in liver tissue ([3]; oral, liver): ~7 fold
elimination half-life of oral TQ, fold longer than oral PQ in the liver ([3]; oral, liver): 17.6 fold
AUCinf ([3]; single oral dose 20 mg/kg, liver): 5391.86 µg·h/g
